In patent US11401274B2, “[1,2,4]Triazolo derivatives as PDE1 inhibitors for the treatment of diabetes” (Eli Lilly and Company, priority 2017, dated 2022) one finds IC50 data, which are given here for 8 compounds.

Holding throughout (assay type): biochemical
One assay has as its target human PDE1C (Homo sapiens (Human), UniProt Q14123). In words: Ca2+ calmodulin dependent PDE enzyme assay (SPA, [3H]cAMP), PDE1C. The conditions noted are these: [3H]cAMP 47 nM; enzyme 0.0012 nM; read-out: PDE 1C IC50 (nM) ± SD (n = number of runs). From the text:
(§1) The nucleotide sequences encoding full-length human PDE1A (NP_001003683.1) and PDE1C (NP_005011.1) are inserted into pFastBac1 (Invitrogen) vector with an N-terminal HIS tag. The nucleotide sequences encoding full-length human PDE4D (NP_006194.2) and catalytic domain (residue 641-1141) of PDE3A (NP_000912.3) are inserted into pFastBac1 (Invitrogen) vector with a C-terminal HIS tag. The nucleotide sequences encoding full-length human PDE6A (NP_000431.2) and PDE6B (AAH00249.1) are inserted into pFastBacDual (Invitrogen) vector with an N-terminal HIS tag and N-terminal Flag tag, respectively, for production of PDE6A/6B dimer. Baculovirus generation and protein expression in Sf9 cells are carried out according to the protocol of Bac-to-Bac Baculovirus Expression system (Invitrogen). The nucleotide sequence encoding full-length human PDE1B (NP_000915.1) is inserted into pIEX4 (Novagen) with a C-terminal HIS tag, and both protein productions in Sf9 cells are carried out according to the vendor's protocol (Novagen). The His tagged PDE proteins are purified using Ni-NTA agarose (Qiagen) followed by size exclusion chromatography on a SUPERDEX© 200 column (GE Healthcare) in storage buffer (20 mM Tris-HCl, pH7.5, 150 mM NaCl, 10% Glycerol). The Flag tagged PDE proteins including PDE6A/6B are purified using anti-Flag M2-agarose (Sigma), after purification through NiNTA column chromatography and eluted in storage buffer (50 mM Tris-HCl, pH7.5, 150 mM NaCl, 10% Glycerol, 0.1 mg/ml Flag peptide). All purified proteins are stored at −80° C. in small aliquots.
(§2) All 3′, 5′ cyclic nucleotide phosphodiesterase (PDE) enzyme activities are measured with a radiometric enzyme assay based on SPA detection system (scintillation proximity assay). Compounds to be tested are diluted in pure dimethyl sulfoxide (DMSO) using ten point concentration response curves. Maximal compound concentration in the reaction mixture is either 10 or 100 μM. Compounds at the appropriate concentration are pre-incubated with either of the PDE enzymes for 30 minutes before the reaction is started by the addition of substrate. Reactions are allowed to proceed for 60 minutes at room temperature. Next, reactions are stopped by addition of SPA beads. Samples are read 12 hours later in a MICROBETA™ TRILUX© Counter. “IC50” refers to the concentration of the compound that produces 50% of the maximal inhibitory response possible for that compound. IC50 values are calculated by plotting the normalized data vs. log [compound] and fitting the data using a four parameter logistic equation.
(§3) PDE1B, PDE1A, and PDE1C are cloned and purified following standard protein generation procedures. The assay buffer is prepared to give a final concentration in the assay of 50 mM Tris-HCl, 50 mM MgC2, 4 mM CaCl2, 0.1% Bovine serum albumin and 6 U/ml Calmodulin in water, at pH 7.5. The final enzyme concentration is 0.25, 0.074 and 0.0012 nM, for PDE1A, PDE1B and PDE1C respectively. The reactions are started by addition of the substrate, [^3H]cAMP, to give a final concentration of 47 nM.

The next assay concerns the target human PDE4D (Homo sapiens (Human), UniProt Q08499). In words: PDE enzyme assay using [3H]cAMP as substrate, PDE4D. To be noted: [3H]cAMP 47 nM; enzyme 0.021 nM; read-out: PDE 4D IC50 (μm) ± SD (n = number of runs).
Text: as §1, §2
(§4) The following phosphodiesterase activities are measured using [3H]cAMP as reaction substrate: human PDE3A (catalytic domain) and human PDE4D. Both enzymes are cloned and purified following standard procedures. The assay buffer is prepared to give a final concentration in the assay of 50 mM Tris-HCl, 8.3 mM MgCl2, 1.7 mM ethylenediarninetetraacetic acid (EDTA) and 0.1% Bovine serum albumin at pH 7.5. Final enzyme concentrations are 0.008 and 0.021 nM for PDE3A and PDE4D, respectively. Reactions are started by addition of the substrate, [3H]cAMP, to give a final concentration of 47 nM.

A further assay has as its target human PDE1B (Homo sapiens (Human), UniProt Q01064). In words: Ca2+ calmodulin dependent PDE enzyme assay (SPA, [3H]cAMP), PDE1B. The conditions noted are these: [3H]cAMP 47 nM; enzyme 0.074 nM; read-out: PDE 1B IC50 (nM) ± SD (n = number of runs).
Text: as §1, §2, §3

For a further assay, the target named is human PDE6A/6B (Homo sapiens (Human), UniProt P16499+P35913). Kind of assay: PDE enzyme assay using [3H]cGMP as substrate, PDE6A/6B. The conditions noted are these: [3H]cGMP 80 nM; enzyme 5 nM; read-out: PDE 6AB IC50 (μM) ± SD (n = number of runs).
human PDE6A/6B, sequence (P16499 whole entry): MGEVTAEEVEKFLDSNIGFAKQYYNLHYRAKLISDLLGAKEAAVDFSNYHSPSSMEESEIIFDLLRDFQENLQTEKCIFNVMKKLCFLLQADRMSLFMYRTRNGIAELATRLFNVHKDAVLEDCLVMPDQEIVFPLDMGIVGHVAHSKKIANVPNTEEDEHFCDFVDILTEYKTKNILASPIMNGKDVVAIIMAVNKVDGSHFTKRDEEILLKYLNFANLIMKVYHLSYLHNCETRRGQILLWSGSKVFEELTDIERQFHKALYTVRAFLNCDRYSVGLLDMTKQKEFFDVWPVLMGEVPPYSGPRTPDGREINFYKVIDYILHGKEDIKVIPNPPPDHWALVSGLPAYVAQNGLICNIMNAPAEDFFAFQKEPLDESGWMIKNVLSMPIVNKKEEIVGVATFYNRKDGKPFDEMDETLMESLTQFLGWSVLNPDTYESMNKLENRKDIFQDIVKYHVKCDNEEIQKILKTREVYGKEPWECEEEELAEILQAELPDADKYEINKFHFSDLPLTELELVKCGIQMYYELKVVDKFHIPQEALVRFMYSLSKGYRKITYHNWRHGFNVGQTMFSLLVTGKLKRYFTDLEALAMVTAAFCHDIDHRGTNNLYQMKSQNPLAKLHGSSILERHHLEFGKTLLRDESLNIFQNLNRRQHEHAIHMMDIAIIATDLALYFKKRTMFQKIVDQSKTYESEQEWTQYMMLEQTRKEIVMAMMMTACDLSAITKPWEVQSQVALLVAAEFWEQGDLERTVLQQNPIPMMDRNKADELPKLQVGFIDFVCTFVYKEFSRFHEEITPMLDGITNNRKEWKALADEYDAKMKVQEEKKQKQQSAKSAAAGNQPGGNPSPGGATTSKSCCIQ
human PDE6A/6B, sequence (P35913 other isoform, or with tags, fused parts or gaps): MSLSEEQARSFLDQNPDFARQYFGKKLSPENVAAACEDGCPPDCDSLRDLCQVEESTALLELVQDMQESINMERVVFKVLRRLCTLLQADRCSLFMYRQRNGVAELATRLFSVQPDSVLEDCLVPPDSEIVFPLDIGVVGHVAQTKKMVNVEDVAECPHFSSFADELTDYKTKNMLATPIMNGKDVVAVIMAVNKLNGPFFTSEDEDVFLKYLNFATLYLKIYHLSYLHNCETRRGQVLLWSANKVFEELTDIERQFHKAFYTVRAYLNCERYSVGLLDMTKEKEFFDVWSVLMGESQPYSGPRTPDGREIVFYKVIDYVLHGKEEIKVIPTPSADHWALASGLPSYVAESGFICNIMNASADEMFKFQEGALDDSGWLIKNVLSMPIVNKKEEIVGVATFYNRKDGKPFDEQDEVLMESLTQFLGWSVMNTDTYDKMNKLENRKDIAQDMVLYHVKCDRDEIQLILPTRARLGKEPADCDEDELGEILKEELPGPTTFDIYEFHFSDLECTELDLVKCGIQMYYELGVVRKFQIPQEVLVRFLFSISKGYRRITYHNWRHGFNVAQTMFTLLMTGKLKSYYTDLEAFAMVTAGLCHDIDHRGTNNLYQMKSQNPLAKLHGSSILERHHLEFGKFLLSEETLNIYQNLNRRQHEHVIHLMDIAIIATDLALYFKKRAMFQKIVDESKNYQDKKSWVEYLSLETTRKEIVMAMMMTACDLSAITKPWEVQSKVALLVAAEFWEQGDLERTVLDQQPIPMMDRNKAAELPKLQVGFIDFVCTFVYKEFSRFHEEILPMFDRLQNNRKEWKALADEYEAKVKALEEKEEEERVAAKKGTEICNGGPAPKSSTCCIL
Text: as §1, §2
The following phosphodiesterase activities are measured using [3H]cGMP as reaction substrate: human PDE6A/6B. The catalytic active form of human PDE6 is a dimer composed of a α (human PDE6A) and β subunit (human PDE6B). The dimer of human PDE6A/6B is produced by the expression and purification strategy, using two purification steps, i.e., NiNTA and anti-FLAG Sepharose chromatography. The assay buffer is prepared to give a final concentration in the assay of 50 mM Tris-HCl, 8.3 mM MgC2, 1.7 mM EDTA and 0.1% Bovine serum albumin at pH 7.5. The final enzyme concentration is 5 nM. The reactions are started by addition of the substrate, [3H]cGMP, to give a final concentration of 80 nM.

The target in the next assay is human PDE1A (Homo sapiens (Human), UniProt P54750). In words: Ca2+ calmodulin dependent PDE enzyme assay (SPA, [3H]cAMP), PDE1A. The conditions noted are these: [3H]cAMP 47 nM; enzyme 0.25 nM; read-out: PDE 1A IC50 (nM) ± SD (n = number of runs).
Text: as §1, §2, §3

For assay [1], the target named is human PDE3A (catalytic domain) (Homo sapiens (Human), UniProt Q14432). In words: PDE enzyme assay using [3H]cAMP as substrate, PDE3A. The conditions noted are these: [3H]cAMP 47 nM, enzyme 0.008 nM, read-out: PDE 3A IC50 (μm) ± SD (n = number of runs).
human PDE3A (catalytic domain), sequence (Q14432 641-1141): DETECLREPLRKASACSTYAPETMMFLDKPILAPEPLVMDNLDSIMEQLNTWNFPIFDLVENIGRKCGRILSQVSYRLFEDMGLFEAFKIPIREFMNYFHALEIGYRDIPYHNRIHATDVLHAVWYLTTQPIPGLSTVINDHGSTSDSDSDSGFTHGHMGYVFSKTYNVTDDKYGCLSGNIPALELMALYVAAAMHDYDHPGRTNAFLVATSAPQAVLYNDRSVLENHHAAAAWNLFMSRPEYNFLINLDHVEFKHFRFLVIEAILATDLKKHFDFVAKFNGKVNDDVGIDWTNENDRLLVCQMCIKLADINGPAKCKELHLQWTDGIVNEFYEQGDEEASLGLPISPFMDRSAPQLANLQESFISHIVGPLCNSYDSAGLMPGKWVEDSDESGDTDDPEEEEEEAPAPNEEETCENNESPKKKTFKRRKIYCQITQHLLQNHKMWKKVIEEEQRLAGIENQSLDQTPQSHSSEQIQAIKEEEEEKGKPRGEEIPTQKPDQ
Text: as §1, §2, §4

human PDE4D, sequence (Q08499 other isoform, or with tags, fused parts or gaps): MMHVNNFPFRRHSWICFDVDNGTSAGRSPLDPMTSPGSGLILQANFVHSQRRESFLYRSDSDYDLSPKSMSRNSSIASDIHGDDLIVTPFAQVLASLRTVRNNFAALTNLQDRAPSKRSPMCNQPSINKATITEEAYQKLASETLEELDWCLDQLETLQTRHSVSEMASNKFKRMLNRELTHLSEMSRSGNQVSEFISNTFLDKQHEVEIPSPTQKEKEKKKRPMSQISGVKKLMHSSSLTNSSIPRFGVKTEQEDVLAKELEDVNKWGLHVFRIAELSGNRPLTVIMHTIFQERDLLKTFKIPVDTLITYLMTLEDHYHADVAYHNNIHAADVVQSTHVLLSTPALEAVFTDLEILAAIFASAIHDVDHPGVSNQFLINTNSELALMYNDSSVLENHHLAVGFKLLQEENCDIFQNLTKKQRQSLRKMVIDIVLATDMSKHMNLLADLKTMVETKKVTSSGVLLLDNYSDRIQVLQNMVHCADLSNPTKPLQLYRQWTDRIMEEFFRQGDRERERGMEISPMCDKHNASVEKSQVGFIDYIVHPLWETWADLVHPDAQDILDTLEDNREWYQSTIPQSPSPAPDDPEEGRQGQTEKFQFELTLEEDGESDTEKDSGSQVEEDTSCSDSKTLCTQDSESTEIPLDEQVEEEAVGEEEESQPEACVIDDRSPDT

As to `O=c1c2nnc(C3(C4CC4)CC3)n2c2c(n1CC1CC1)CCCCC2` [Example 8, 1-([1,1′-bi(cyclopropan)]-1-yl)-5-(cyclopropylmethyl)-5,6,7,8,9,10-hexahydro-4H-cyclohepta[e][1,2,4]triazolo[4,3-a]pyrazin-4-one], the IC50 at human PDE1C was 4.7 ± 1.4 nM; on human PDE4D, 12100 nM; on human PDE1B it was 6.6 nM; at human PDE6A/6B, more than 10 µM; on human PDE1A it was 6.5 ± 2.6 nM; in assay [1], more than 100000 nM.
Regarding `O=c1c2nnc(C3(C4CC4)CC3)n2c2c(n1CC1CCC1)CCOC2` [Example 5, 1-([1,1′-bi(cyclopropan)]-1-yl)-5-(cyclobutylmethyl)-5,6,7,9-tetrahydro-4H-pyrano[4,3-e][1,2,4]triazolo[4,3-a]pyrazin-4-one], the IC50 was 1.9 ± 0.4 nM on human PDE1C; 19200 nM at human PDE4D; 4.2 nM at human PDE1B; more than 10 µM at human PDE6A/6B; 5.8 ± 2.3 nM on human PDE1A; more than 100000 nM in assay [1].
`CCCCn1c2c(n3c(C4(C5CC5)CC4)nnc3c1=O)CCOC2` [Example 7, 1-([1,1′-bi(cyclopropan)]-1-yl)-5-butyl-8,9-dihydro-6H-pyrano[3,4-e][1,2,4]triazolo[4,3-a]pyrazin-4(5H)-one]: the IC50 is 2 ± 0.1 nM at human PDE1C; more than 100000 nM at human PDE4D; 12 nM at human PDE1B; more than 10 µM on human PDE6A/6B; 5.2 ± 2 nM on human PDE1A; more than 100000 nM in assay [1].
For `O=c1c2nnc(C3(C4CC4)CC3)n2c2c(n1CC1CC1)COCC2` [Example 6, 1-(1-cyclopropylcyclopropyl)-5-(cyclopropylmethyl)-3-oxo-7,8-dihydro-5H-pyrano-[1,2,4]triazolo[4,3-a]quinoxalin-4-one], the IC50 at human PDE1C is 7.6 ± 1.9 nM; at human PDE4D it was 39200 ± 16500 nM; at human PDE1B it was 14.9 nM; on human PDE6A/6B, more than 10 µM; on human PDE1A it was 8.4 ± 3.8 nM; in assay [1], more than 100000 nM.
`O=c1c2nnc(C3(C4CC4)CC3)n2c2c(n1CC1CC1)CCOC2` [Example 3, 1-([1,1′-bi(cyclopropan)]-1-yl)-5-(cyclopropylmethyl)-5,6,7,9-tetrahydro-4H-pyrano[4,3-e][1,2,4]triazolo[4,3-a]pyrazin-4-one]: the IC50 on human PDE1C is 5.2 ± 0.6 nM; on human PDE4D, 16400 ± 300 nM; at human PDE1B, 8.7 nM; on human PDE6A/6B, more than 10 µM; on human PDE1A, 9.8 ± 2.2 nM; in assay [1], more than 100000 nM.
As for `CCCCn1c2c(n3c(C4(C5CC5)CC4)nnc3c1=O)COCC2` [Example 4, 1-([1,1′-bi(cyclopropan)]-1-yl)-5-butyl-5,6,7,9-tetrahydro-4H-pyrano[4,3-e][1,2,4]triazolo[4,3-a]pyrazin-4-one], the IC50 was 1.5 ± 0.5 nM at human PDE1C; 21800 nM on human PDE4D; 7.8 nM at human PDE1B; more than 10 µM at human PDE6A/6B; 6.3 ± 0.4 nM at human PDE1A; more than 100000 nM in assay [1].
With `CCCCn1c2c(n3c(C4(C5CC5)CC4)nnc3c1=O)CCCC2` [Example 2, 1-([1,1′-bi(cyclopropan)]-1-yl)-5-butyl-6,7,8,9-tetrahydro-[1,2,4]triazolo[4,3-a]quinoxalin-4(5H)-one], the IC50 on human PDE1C was 1.4 ± 0.9 nM; on human PDE4D, 13200 ± 2500 nM; at human PDE1B, 4.1 nM; on human PDE6A/6B, more than 10 µM; on human PDE1A, 3 ± 2.1 nM; in assay [1], more than 100000 nM.
As to `CCCn1c2c(n3c(C4(C5CC5)CC4)nnc3c1=O)CCCC2` [Example 1, 1-([1,1′-bi(cyclopropan)]-1-yl)-5-propyl-6,7,8,9-tetrahydro-[1,2,4]triazolo[4,3-a]quinoxalin-4(5H)-one], the IC50 on human PDE1C was 2.6 ± 3.3 nM; on human PDE4D, 12700 nM; at human PDE1B, 3.1 nM; on human PDE6A/6B, more than 10 µM; at human PDE1A it was 2.9 ± 1.9 nM; in assay [1], more than 100000 nM.

Usually IC50 stands for the concentration at which inhibition is half-maximal.
